{"source": "patent US20140205662A1", "about": "“SYSTEM AND METHOD FOR […] TIMED LOCAL […] OF A COMBINATION PHARMACEUTICAL PREPARATION FOR ORAL THERAPY” (The Research Foundation for The State University of New York, priority 2010, published 2014)", "system": "gingival fibroblasts", "description": "To determine whether the co-administration of these two compounds was cytotoxic, the following experiments were carried out.", "data": [{"smiles": "C[C@H]1c2cccc(O)c2C(=O)C2=C(O)[C@]3(O)C(=O)C(C(N)=O)=C(O)[C@@H](N(C)C)[C@@H]3[C@@H](O)[C@@H]21", "note": "[doxycycline]", "values": [{"measurement": "cytotoxicity (in words)", "result": "relatively increasing cytotoxicity with increasing concentration"}, {"measurement": "relative cytotoxicity", "result": "0 to 0.231", "unit": "mg/mL"}]}, {"smiles": "CC(C(=O)O)c1ccc(-c2ccccc2)c(F)c1", "note": "(stereo not shown) [flurbiprofen]", "values": [{"measurement": "cytotoxicity (in words)", "result": "relatively low cytotoxicity"}, {"measurement": "relative cytotoxicity", "result": "0 to 0.031", "unit": "mg/mL"}]}]}
